From patent US20220287976A1, “AMMONIA AS A PROCESSING AID FOR SPRAYED SOLID DISPERSIONS” (Capsugel Belgium NV, priority 2019, published 2022)
Converted amounts (≈) assume the structure as drawn.

Experiments:
[1] = Crystalline solubility in methanol (saturated solution, thermogravimetric analysis of supernatant); type: physicochemical; settings: organic solvent or mixture, thermodynamic from solid, no ammonia
Experimental: A saturated solution of sulfasalazine (Spectrum Chemical) was prepared in methanol with excess crystalline sulfasalazine.
A saturated solution of piroxicam (Spectrum Chemical) was prepared in methanol with excess crystalline piroxicam.

[2] = Concentration enhancement in methanol with ammonia; type: physicochemical; settings: for concentration in methanol in the presence of ammonia: methanol with about 1.07 molar equivalents of ammonia, completely dissolved; for time to dissolution after addition of ammonia: slurry in methanol, 2.14 M ammonia in methanol added with stirring; for solubility enhancement in methanol in the presence of ammonia: versus crystalline solubility in methanol without ammonia
Experimental: A second mixture of sulfasalazine in methanol was prepared by stirring 656.0 mg of sulfasalazine (1.65 mmol) in 14.00 mL of methanol. To this slurry, 0.825 mL of 2.14 M ammonia (1.76 mmol) in methanol was added with stirring resulting in complete dissolution of sulfasalazine within 1 minute.
A second mixture of piroxicam in methanol was prepared by stirring 661.8 mg of piroxicam (2.00 mmol) in 15.00 mL of methanol.

solubility [1] [µg/mL] | concentration in methanol in the presence of ammonia [2] | time to dissolution after addition of ammonia [2] [min] | solubility enhancement in methanol in the presence of ammonia [2] | Structure (SMILES)
~1000 (≈ 2.51 mM) | greater than 43 mg/mL | ≤ 1 | about 43 fold | O=C(O)c1cc(/N=N/c2ccc(S(=O)(=O)Nc3ccccn3)cc2)ccc1O [sulfasalazine]
~2100 (≈ 6.34 mM) | greater than 41 mg/mL | ≤ 1 | greater than 19 fold | CN1C(C(=O)Nc2ccccn2)=C(O)c2ccccc2S1(=O)=O [piroxicam]
